Measurements as given in patent US11207325B2, “Triazolopyrimidine compounds and uses thereof” (Novartis AG, priority 2014, dated 2021).

Test system: H3K27 methylation in G401 cell
Experiment: ELISA (H3K27 methylation) assay
Type: cell-based
Conditions: Homo sapiens, G-401; ELISA Qualified assay (H3K27 methylation); read-out: (c) IC50 (μM), ELISA Qualified
Source text: ELISA (H3K27 Methylation) Assay

| Structure (SMILES) | IC50 [µM] |
| --- | --- |
| CC1(C)COC(c2ccc(-c3cnc(NCc4cccc5c4CCO5)n4cnnc34)cn2)=N1 [Example 101, N-((2,3-dihydrobenzofuran-4-yl)methyl)-8-(6-(4,4-dimethyl-4,5-dihydrooxazol-2-yl)pyridin-3-yl)-[1,2,4]triazolo[4,3-c]pyrimidin-5-amine] | 0.761 |
| O=CN1CCN(c2ccc(-c3cnc(NCc4cccc5c4CCO5)n4cnnc34)cn2)CC1 [Example 134, 4-(5-(5-(((2,3-dihydrobenzofuran-4-yl)methyl)amino)-[1,2,4]triazolo[4,3-c]pyrimidin-8-yl)pyridin-2-yl)piperazine-1-carbaldehyde] | 0.165 |
| N#Cc1ccccc1-c1cnc(NCc2c(F)ccc3c2CCO3)n2cnnc12 [Example 121, 2-(5-(((5-fluoro-2,3-dihydrobenzofuran-4-yl)methyl)amino)-[1,2,4]triazolo[4,3-c]pyrimidin-8-yl)-benzonitrile] | 0.0142 |
| Cc1ncccc1-c1cnc(NCc2cccc3c2CCO3)n2cnnc12 [Example 123, N-((2,3-dihydrobenzofuran-4-yl)methyl)-8-(2-methylpyridin-3-yl)-[1,2,4]triazolo[4,3-c]pyrimidin-5-amine] | 0.0197 |
| COc1cc(-c2cnc(NCc3c(F)ccc4c3CCO4)n3cnnc23)ccn1 [Example 145, N-((5-fluoro-2,3-dihydrobenzofuran-4-yl)methyl)-8-(2-methoxypyridin-4-yl)-[1,2,4]triazolo[4,3-c]pyrimidin-5-amine] | 0.0052 |
| CS(=O)(=O)c1ccc(-c2cnc(NCc3cccc4c3CCO4)n3cnnc23)cn1 [Example 28, N-((2,3-dihydrobenzofuran-4-yl)methyl)-8-(6-(methylsulfonyl)pyridin-3-yl)-[1,2,4]triazolo[4,3-c]pyrimidin-5-amine] | 0.415 |
| CC(C)n1nccc1-c1cnc(NCc2c(F)ccc3c2CCO3)n2cnnc12 [Example 144, N-((5-fluoro-2,3-dihydrobenzofuran-4-yl)methyl)-8-(1-isopropyl-1H-pyrazol-5-yl)-[1,2,4]triazolo[4,3-c]pyrimidin-5-amine] | 0.0683 |
| CS(=O)(=O)CCOc1cncc(-c2cnc(NCc3cccc4c3CCO4)n3cnnc23)c1 [Example 106, N-((2,3-dihydrobenzofuran-4-yl)methyl)-8-(5-(2-(methylsulfonyl)ethoxy)pyridin-3-yl)-[1,2,4]triazolo[4,3-c]pyrimidin-5-amine] | 2.7 |
| CNc1cc(F)c(-c2cnc(NCc3cccc4c3CCO4)n3cnnc23)cn1 [Example 111, N-((2,3-dihydrobenzofuran-4-yl)methyl)-8-(4-fluoro-6-(methylamino)pyridin-3-yl)-[1,2,4]triazolo[4,3-c]pyrimidin-5-amine] | 0.14 |
| Cc1ccc(-c2cnc(NCc3cccc4c3CCO4)n3cnnc23)cn1 [Example 52] | 0.106 |
| CC(C)n1cc(-c2cnc(NCc3c(F)ccc4c3CCO4)n3cnnc23)c(C(F)(F)F)n1 [Example 148, N-((5-fluoro-2,3-dihydrobenzofuran-4-yl)methyl)-8-(1-isopropyl-3-(trifluoromethyl)-1H-pyrazol-4-yl)-[1,2,4]triazolo[4,3-c]pyrimidin-5-amine] | 0.0252 |
| CN(C)C(=O)c1ccc(-c2cnc(NCc3c(F)ccc4c3CCO4)n3cnnc23)cc1 [Example 55, 4-(5-(((5-fluoro-2,3-dihydrobenzofuran-4-yl)methyl)amino)-[1,2,4]triazolo[4,3-c]pyrimidin-8-yl)-N,N-dimethylbenzamide] | 0.0131 |
| Nc1ccncc1-c1cnc(NCc2cccc3c2CCO3)n2cnnc12 [Example 76, 8-(4-aminopyridin-3-yl)-N-((2,3-dihydrobenzofuran-4-yl)methyl)-[1,2,4]triazolo[4,3-c]pyrimidin-5-amine] | 0.32 |
| Fc1ccc2c(c1CNc1ncc(-c3ccc(N4CCOCC4)nc3)c3nncn13)CCO2 [Example 92, N-((5-fluoro-2,3-dihydrobenzofuran-4-yl)methyl)-8-(6-morpholinopyridin-3-yl)-[1,2,4]triazolo[4,3-c]pyrimidin-5-amine] | 0.0409 |
| Cn1cc(-c2cnc(NCc3c(F)ccc4c3CCO4)n3cnnc23)cn1 [Example 147, N-((5-fluoro-2,3-dihydrobenzofuran-4-yl)methyl)-8-(1-methyl-1H-pyrazol-4-yl)-[1,2,4]triazolo[4,3-c]pyrimidin-5-amine] | 0.0113 |
| O=CN1CCCN(c2ccc(-c3cnc(NCc4cccc5c4CCO5)n4cnnc34)cn2)CC1 [Example 113, 4-(5-(5-(((2,3-dihydrobenzofuran-4-yl)methyl)amino)-[1,2,4]triazolo[4,3-c]pyrimidin-8-yl)pyridin-2-yl)-1,4-diazepane-1-carbaldehyde] | 0.72 |
| COc1ncc(-c2cnc(NCc3cccc4c3CCO4)n3cnnc23)cn1 [Example 54, N-((2,3-dihydrobenzofuran-4-yl)methyl)-8-(2-methoxypyrimidin-5-yl)-[1,2,4]triazolo[4,3-c]pyrimidin-5-amine] | 0.144 |
| CS(=O)(=O)CCCOc1cncc(-c2cnc(NCc3cccc4c3CCO4)n3cnnc23)c1 [Example 98, N-((2,3-dihydrobenzofuran-4-yl)methyl)-8-(5-(3-(methylsulfonyl)propoxy)pyridin-3-yl)-[1,2,4]triazolo[4,3-c]pyrimidin-5-amine] | 1.42 |
| Fc1ccccc1-c1cnc(NCc2cccc3c2CCO3)n2cnnc12 [Example 31, N-((2,3-dihydrobenzofuran-4-yl)methyl)-8-(2-fluorophenyl)-[1,2,4]triazolo[4,3-c]pyrimidin-5-amine] | 0.0298 |

Other lines, results leading:

| IC50 [µM] | Structure (SMILES) |
| --- | --- |
| 0.0034 | COc1ncc(-c2cnc(NCc3c(F)ccc4c3CCO4)n3cnnc23)c(C)n1 [Example 175, N-((5-fluoro-2,3-dihydrobenzofuran-4-yl)methyl)-8-(2-methoxy-4-methylpyrimidin-5-yl)-[1,2,4]triazolo[4,3-c]pyrimidin-5-amine] |
| 0.22 | c1cc(CNc2ncc(-c3cnn(C4CC4)c3)c3nncn23)c2c(c1)OCC2 [Example 149, 8-(1-cyclopropyl-1H-pyrazol-4-yl)-N-((2,3-dihydrobenzofuran-4-yl)methyl)-[1,2,4]triazolo[4,3-c]pyrimidin-5-amine] |
| 0.0114 | Cc1cc(C#N)ccc1-c1cnc(NCc2c(F)ccc3c2CCO3)n2cnnc12 [Example 178, 4-(5-(((5-fluoro-2,3-dihydrobenzofuran-4-yl)methyl)amino)-[1,2,4]triazolo[4,3-c]pyrimidin-8-yl)-3-methylbenzonitrile] |
| 0.0052 | Cc1c(-c2cnc(NCc3c(F)ccc4c3CCO4)n3cnnc23)cnn1CCO [Example 189, 2-(4-(5-(((5-fluoro-2,3-dihydrobenzofuran-4-yl)methyl)amino)-[1,2,4]triazolo[4,3-c]pyrimidin-8-yl)-5-methyl-1H-pyrazol-1-yl)ethanol] |
| 0.0159 | Fc1ccc2c(c1CNc1ncc(-c3cncnc3)c3nncn13)CCO2 [Example 206, N-((5-fluoro-2,3-dihydrobenzofuran-4-yl)methyl)-8-(pyrimidin-5-yl)-[1,2,4]triazolo[4,3-c]pyrimidin-5-amine] |
| 0.0103 | Cc1c(-c2cnc(NCc3c(F)ccc4c3CCO4)n3cnnc23)ccc[n+]1[O-] [Example 204, 3-(5-(((5-fluoro-2,3-dihydrobenzofuran-4-yl)methyl)amino)-[1,2,4]triazolo[4,3-c]pyrimidin-8-yl)-2-methylpyridine 1-oxide] |
| 0.0241 | Cc1cc(-c2cnc(NCc3c(F)ccc4c3CCO4)n3cnnc23)c(C)cn1 [Example 194, 8-(2,5-dimethylpyridin-4-yl)-N-((5-fluoro-2,3-dihydrobenzofuran-4-yl)methyl)-[1,2,4]triazolo[4,3-c]pyrimidin-5-amine] |
| 0.0393 | Cc1ccc(-c2cnc(NCc3c(F)ccc4c3CCO4)n3cnnc23)c(C)n1 [Example 167, 8-(2,6-dimethylpyridin-3-yl)-N-((5-fluoro-2,3-dihydrobenzofuran-4-yl)methyl)-[1,2,4]triazolo[4,3-c]pyrimidin-5-amine] |
| 0.0079 | CN(C)Cc1ccc(-c2cnc(NCc3c(F)ccc4occc34)n3cnnc23)cc1 [Example 219, 8-(4-((dimethylamino)methyl)phenyl)-N-((5-fluorobenzofuran-4-yl)methyl)-[1,2,4]triazolo[4,3-c]pyrimidin-5-amine] |
| 0.0044 | Cc1nccc(-c2cnc(NCc3c(F)ccc4c3CCO4)n3cnnc23)c1C [Example 177, 8-(2,3-dimethylpyridin-4-yl)-N-((5-fluoro-2,3-dihydrobenzofuran-4-yl)methyl)-[1,2,4]triazolo[4,3-c]pyrimidin-5-amine] |
| 0.0101 | Fc1ccc2c(c1CNc1ncc(-n3cccn3)c3nncn13)CCO2 [Example 237, N-((5-fluoro-2,3-dihydrobenzofuran-4-yl)methyl)-8-(1H-pyrazol-1-yl)-[1,2,4]triazolo[4,3-c]pyrimidin-5-amine] |
| 0.0284 | Fc1ccc2c(c1CNc1ncc(-n3cncn3)c3nncn13)CCO2 [Example 241, N-((5-fluoro-2,3-dihydrobenzofuran-4-yl)methyl)-8-(1H-1,2,4-triazol-1-yl)-[1,2,4]triazolo[4,3-c]pyrimidin-5-amine] |
| 0.0261 | Cc1nc(N)ccc1-c1cnc(NCc2c(F)ccc3c2CCO3)n2cnnc12 [Example 156, 8-(6-amino-2-methylpyridin-3-yl)-N-((5-fluoro-2,3-dihydrobenzofuran-4-yl)methyl)-[1,2,4]triazolo[4,3-c]pyrimidin-5-amine] |
| 0.0054 | FCc1ncccc1-c1cnc(NCc2c(F)ccc3c2CCO3)n2cnnc12 [Example 193, N-((5-fluoro-2,3-dihydrobenzofuran-4-yl)methyl)-8-(2-(fluoromethyl)pyridin-3-yl)-[1,2,4]triazolo[4,3-c]pyrimidin-5-amine] |
| 0.078 | COc1ccc(-c2cnc(NCc3c(F)ccc4c3CCO4)n3cnnc23)c(C)n1 [Example 155, N-((5-fluoro-2,3-dihydrobenzofuran-4-yl)methyl)-8-(6-methoxy-2-methylpyridin-3-yl)-[1,2,4]triazolo[4,3-c]pyrimidin-5-amine] |
| 0.0149 | Cc1cc(OC(F)F)ncc1-c1cnc(NCc2c(F)ccc3c2CCO3)n2cnnc12 [Example 197, 8-(6-(difluoromethoxy)-4-methylpyridin-3-yl)-N-((5-fluoro-2,3-dihydrobenzofuran-4-yl)methyl)-[1,2,4]triazolo[4,3-c]pyrimidin-5-amine] |
